Experimental data published in patent US20090215775A1, “Sulphonamido-Substituted Cyclohexyl Sulphones for Treatment of Cancer” (priority 2005, published 2009).

Test system: Cells expressing Notch (ALL-SIL, DND-41, HPB-ALL or TALL-1)
Assay: Assay for Cell Cycle Arrest (propidium iodide, FACS)
Type: cell-based
Details: concentrations up to 10 μM; incubation typically 4-8 days; in comparison to untreated controls
Description: Cells expressing Notch (ALL-SIL, DND-41, HPB-ALL or TALL-1) (Weng et al, Science, 306 (2004), 269-71) are incubated in the presence or absence of a compound of the instant invention (e.g. the compound of Example 47 below) at concentrations up to 10 μM. At the end of the incubation (typically 4-8 days), the cells are collected, fixed in 70% ethanol on ice for >2 hours, washed, then labelled for 15 min at 37° C. with propidium iodide (0.2 mg/ml) (PI) in the presence of 0.1% Triton X100 and 0.2 mg/ml RNase and subjected to FACS analysis.

**Q.** `O=S(=O)(N[C@H]1CC[C@@](c2cc(F)ccc2F)(S(=O)(=O)c2ccc(Cl)cc2)CC1)C(F)(F)F` [Example 47, trifluoromethanesulfonic acid, N-[4-(4-chlorobenzenesulfonyl)-4-(2,5-difluorophenyl)-cyclohexyl]-amide] was tested. Which “G2- and S-phase populations (FACS analysis)” value did it give?
**A.** Its value is “severe loss of G2- and S-phase populations”.
